In patent US4548946A, “Antiinflammatory and/or analgesic 1,8-Dihydro-(or 3,8-dihydro)-8-aryl-2-[(substituted)thio]-indeno[1,2-d]imidazoles and their corresponding sulfoxides and sulfones” (E. I. Du Pont de Nemours and Company, priority 1982, dated 1985):
Where two headings read alike, the source gives them in different places.

Columns and labels:
[1] = tested on: adjuvant-induced arthritis; assay: Established adjuvant-induced arthritis in rats (paw volume); assay type: in vivo, Charles River Lewis male rats; conditions: for ED50: read-out: Adjuvant Arthritic ED50; for Paw volume reduction at indicated daily dose (Adjuvant Arthritic): oral, daily dose 9 (mg/kg), 7 days, printed in the ED50 column, footnote 1
[2] = tested on: writhing induced by phenylquinone; assay: Phenylquinone writhing test (analgesic activity); assay type: in vivo, female white mice; conditions: read-out: Phenylquinone Writhing ED50
Procedure: PHENYLQUINONE WRITHING TEST
A test compound suspended in 1% methylcellulose was given orally to fasted (17-21 hours) female white mice, 5-20 animals per double blind test. Aqueous (0.01% phenyl-p-benzoquinone)phenylquinone, 0.20 ml per mouse, was injected intraperitoneally 6 minutes before observations were begun.

[3] = rat, oral gavage daily for 7 days, ED50% decrease from control paw volume, uninjected left hind paw, one day after last dose
[4] = mouse, oral, fasted 17-21 hours, effective analgesic dose for 50% of the mice

| Compound | ED50 ([1]; Rattus norvegicus, po) [mg/kg] | ED50 ([2]; Mus musculus, po) [mg/kg] | ED50 [1, 3] [mg/kg] | ED50 [2, 4] [mg/kg] | Paw volume reduction at indicated daily dose (Adjuvant Arthritic) ([1]; rat) [%] |
| --- | --- | --- | --- | --- | --- |
| CC(=O)Oc1ccccc1C(=O)O [Aspirin, reference compound] | 305 | 135 |  |  |  |
| FC(F)C(F)(F)Sc1nc2c([nH]1)C(c1ccccc1)c1ccccc1-2 (stereo not drawn) [Example 1, 1,8-Dihydro(or 3,8-dihydro)-2-[(1,1,2,2-tetrafluoroethyl)thio]-8-phenyl-indeno[1,2-d]imidazole] |  |  | 0.79 | 0.16 |  |
| O=S(=O)(c1nc2c([nH]1)C(c1ccccc1)c1ccccc1-2)C(F)(F)C(F)F (stereo not drawn) [Example 2, 1,8-Dihydro(or 3,8-dihydro)-2-[(1,1,2,2-tetrafluoroethyl)sulfonyl]-8-phenyl-indeno[1,2-d]imidazole] |  |  | 0.2 | 0.04 |  |
| FC(F)(F)Sc1nc2c([nH]1)C(c1ccccc1)c1ccccc1-2 (stereo not drawn) [Example 3, 1,8-Dihydro(or 3,8-dihydro)-2-[(trifluoromethyl)thio]-8-phenyl-indeno[1,2-d]imidazole] |  |  | 1.1 | 0.26 |  |
| O=S(=O)(c1nc2c([nH]1)C(c1ccccc1)c1ccccc1-2)C(F)(F)F (stereo not drawn) [Example 4, 1,8-Dihydro(or 3,8-dihydro)-2-[(trifluoromethyl)sulfonyl]-8-phenyl-indeno[1,2-d]imidazole] |  |  | 1.35 | 0.04 |  |
| [O-][S+](c1nc2c([nH]1)C(c1ccccc1)c1ccccc1-2)C(F)(F)F (stereo not drawn) [Example 5, 1,8-Dihydro(or 3,8-dihydro)-2-[(trifluoromethyl)sulfinyl]-8-phenyl-indeno[1,2-d]imidazole] |  |  | 0.62 | 0.057 |  |
| CSc1nc2c([nH]1)C(c1ccccc1)c1ccccc1-2 (stereo not drawn) [Example 6, 1,8-Dihydro(or 3,8-dihydro)-2-(methylthio)-8-phenyl-indeno[1,2-d]imidazole] |  |  | 50 | 27 |  |
| CS(=O)(=O)c1nc2c([nH]1)C(c1ccccc1)c1ccccc1-2 (stereo not drawn) [Example 7, 1,8-Dihydro(or 3,8-dihydro)-2-(methylsulfonyl)-8-phenyl-indeno[1,2]-dimidazole] |  |  | 19 | 14 |  |
| COc1ccc2c(c1)C(c1ccccc1)c1[nH]c(SC(F)(F)F)nc1-2 (stereo not drawn) [Example 8] |  |  | 10.5 | 2.4 |  |
| COc1cccc2c1-c1nc(SC(F)(F)F)[nH]c1C2c1ccccc1 (stereo not drawn) [Example 9] |  |  | > 9 | 8.3 |  |
| FC(F)(F)Sc1nc2c([nH]1)C(c1ccc(Cl)c(Cl)c1)c1ccccc1-2 (stereo not drawn) [Example 10] |  |  |  | 1.3 | 44 |
| CCSc1nc2c([nH]1)C(c1ccccc1)c1ccccc1-2 (stereo not drawn) [Example 11] |  |  | 14 | 14 |  |
| CCCCSc1nc2c([nH]1)C(c1ccccc1)c1ccccc1-2 (stereo not drawn) [Example 12] |  |  | > 27 | 65 |  |
| COc1ccc(C2c3ccccc3-c3nc(SC(F)(F)F)[nH]c32)cc1 (stereo not drawn) [Example 13] |  |  | 3.2 | 0.147 |  |
| COc1ccc(C2c3ccccc3-c3nc(S(=O)(=O)C(F)(F)F)[nH]c32)cc1 (stereo not drawn) [Example 14] |  |  | 0.5 | 0.2 |  |
| Cc1ccc2c(c1)-c1nc(SC(F)(F)C(F)F)[nH]c1C2c1ccccc1 (stereo not drawn) [Example 15] |  |  | 3.6 | 5 |  |
| Cc1ccc2c(c1)-c1nc(S(=O)(=O)C(F)(F)C(F)F)[nH]c1C2c1ccccc1 (stereo not drawn) [Example 16] |  |  |  | 0.064 | 39 |
| Fc1ccc(C2c3ccccc3-c3nc(SC(F)(F)F)[nH]c32)cc1 (stereo not drawn) [Example 17] |  |  | 2.4 | 0.14 |  |
| CC(C)Cc1ccc(C(C)C(=O)O)cc1 (stereo not drawn) [Ibuprofen, reference compound] |  |  | 100 | 10 |  |
| COc1ccc2c(c1)c(CC(=O)O)c(C)n2C(=O)c1ccc(Cl)cc1 [Indomethacin, reference compound] | 0.3 | 0.35 |  |  |  |
| CCCCC1C(=O)N(c2ccccc2)N(c2ccccc2)C1=O [Phenylbutazone, phenylbutazone, reference compound] |  |  | 10 | 80 |  |
